In the test the target is T1, NLRP3 (Homo sapiens, UniProt Q96P20).
T1 construct: IL-1β Production in PMA-Differentiated THP-1 Cells Stimulated with Gramicidin; host or cells: THP-1 cells, PMA-differentiated
Put plainly: IL-1β production in PMA-differentiated THP-1 cells stimulated with gramicidin (hTHP-1 assay). The settings on record: hTHP-1 assay containing 2% fetal bovine serum, read-out: NLRP3 Antagonist, human THP1 NLRP3, IL-1b, Normalized: GeoMean IC50. Type of test: cell-based. The protocol:
IL-1β Production in PMA-Differentiated THP-1 Cells Stimulated with Gramicidin.
THP-1 cells were purchased from the American Type Culture Collection and sub-cultured according to instructions from the supplier. […] Prior to the experiment THP-1 were treated with PMA (Phorbol 12-myristate 13-acetate) (20 ng/ml) for 16-18 hours. On the day of the experiment the media was removed and adherent cells were detached with trypsin for 5 minutes. […] A vehicle only control was run concurrently with each experiment. Final DMSO concentration was 0.38%.
THP-1 cells were purchased from the American Type Culture Collection and sub-cultured according to instructions from the supplier. […] Prior to the experiment THP-1 were treated with PMA (Phorbol 12-myristate 13-acetate) (20 ng/ml) for 16-18 hours. Compounds were dissolved in dimethyl sulfoxide (DMSO) to generate a 30 mM stock. On the day of the experiment the media was removed and adherent cells were detached with trypsin for 5 minutes. […] Final DMSO concentration was at 0.37%. Cells were incubated with compounds for 1 hour and then stimulated with gramicidin (5 μM) (Enzo) for 2 hours. Plates were then centrifuged at 340 g for 5 min. Cell free supernatant (40 μL) was collected using a 96-channel PlateMaster (Gilson) and the production of IL-1p was evaluated by HTRF (cisbio).
IL-1p Production in PMA-Differentiated THP-1 Cells Stimulated with Gramicidin.
THP-1 cells were purchased from the American Type Culture Collection and sub-cultured according to instructions from the supplier. […] Prior to the experiment, compounds were dissolved in dimethyl sulfoxide (DMSO) to generate a 30 mM stock. […] DMSO was backfilled in the plate to achieve a final DMSO assay concentration of 0.37%. The plate was then sealed and stored at room temperature until required.
THP-1 cells were treated with PMA (Phorbol 12-myristate 13-acetate) (20 ng/ml) for 16-18 hours. On the day of the experiment the media was removed and adherent cells were detached with trypsin for 5 minutes. […] The plates were incubated for 18 h at 4° C. and read using the preset HTRF program (donor emission at 620 nm, acceptor emission at 668 nm) of the SpectraMax i3x spectrophotometer (Molecular Devices, software SoftMax 6).

Where [1] appears, read: average IC50, given as numeric bound.

Molecules are shown by their SMILES. Where two headings read alike, the source gives them in different places.

T1 sequence (Q96P20 whole entry): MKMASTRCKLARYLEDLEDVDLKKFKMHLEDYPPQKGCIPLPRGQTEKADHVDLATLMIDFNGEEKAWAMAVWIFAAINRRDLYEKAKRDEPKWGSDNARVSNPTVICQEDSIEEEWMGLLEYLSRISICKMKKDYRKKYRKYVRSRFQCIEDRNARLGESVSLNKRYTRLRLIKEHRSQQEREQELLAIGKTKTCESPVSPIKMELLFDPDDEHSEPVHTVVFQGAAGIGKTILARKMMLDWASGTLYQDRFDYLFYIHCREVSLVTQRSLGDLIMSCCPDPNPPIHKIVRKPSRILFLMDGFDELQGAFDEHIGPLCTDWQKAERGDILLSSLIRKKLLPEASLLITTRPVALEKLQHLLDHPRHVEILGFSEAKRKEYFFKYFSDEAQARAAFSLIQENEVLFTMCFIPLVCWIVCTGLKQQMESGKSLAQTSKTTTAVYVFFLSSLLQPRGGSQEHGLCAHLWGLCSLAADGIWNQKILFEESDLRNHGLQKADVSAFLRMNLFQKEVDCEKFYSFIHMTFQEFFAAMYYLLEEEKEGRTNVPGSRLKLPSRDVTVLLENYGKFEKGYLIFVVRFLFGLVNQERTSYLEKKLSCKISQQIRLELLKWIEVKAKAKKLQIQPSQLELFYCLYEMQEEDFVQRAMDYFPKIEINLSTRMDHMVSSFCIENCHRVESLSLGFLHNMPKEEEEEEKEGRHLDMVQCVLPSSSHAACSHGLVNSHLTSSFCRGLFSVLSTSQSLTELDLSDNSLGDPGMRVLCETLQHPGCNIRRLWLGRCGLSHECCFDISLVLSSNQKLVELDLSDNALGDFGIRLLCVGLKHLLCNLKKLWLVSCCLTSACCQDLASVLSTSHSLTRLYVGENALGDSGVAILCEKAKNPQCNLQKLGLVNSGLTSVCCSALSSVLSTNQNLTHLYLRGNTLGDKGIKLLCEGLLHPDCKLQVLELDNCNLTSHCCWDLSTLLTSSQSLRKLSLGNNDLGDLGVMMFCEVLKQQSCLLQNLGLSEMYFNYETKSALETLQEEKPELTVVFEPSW

`CC(C)c1cc(C2CCC(C)(C)CC2)cc(C(C)C)c1CC(=O)NS(=O)(=O)c1ccc(CN(C)C)cc1` [Compound 316, N-{4-[(dimethylamino)methyl]benzene-sulfonyl}-2-[4-(4,4-dimethylcyclohexyl)-2,6-bis(propan-2-yl)phenyl]acetamide]: where the note is “average IC50, class symbols”, the concentration for half-maximal inhibition (IC50) was in the range of 1000 to 5000 nM.

`CC(C)c1cc(C2CCCc3ccccc32)cc(C(C)C)c1CC(=O)NS(=O)(=O)c1ccc(CN(C)C)cc1` (stereo not shown) [Compound 321, 2-[2,6-bis(propan-2-yl)-4-(1,2,3,4-tetrahydronaphthalen-1-yl)phenyl]-N-{4-[(dimethylamino)methyl]benzene-sulfonyl}acetamide]: for the setting “average IC50, class symbols”, the IC50 is 1000 to 5000 nM. Same read-out and setting: then `CC(C)c1cc(C2CCc3ccccc32)cc(C(C)C)c1CC(=O)NS(=O)(=O)c1ccc(CN(C)C)cc1` (stereo not shown) [Compound 322, 2-[4-(2,3-dihydro-1H-inden-1-yl)-2,6-bis(propan-2-yl)phenyl]-N-{4-[(dimethylamino)methyl]benzene-sulfonyl}acetamide], with 200 to 1000 nM. Turning to `CC(C)c1cc(C2Cc3ccccc3C2)cc(C(C)C)c1CC(=O)NS(=O)(=O)c1ccc(CN(C)C)cc1` [Compound 323, 2-[4-(2,3-dihydro-1H-inden-2-yl)-2,6-bis(propan-2-yl)phenyl]-N-{4-[(dimethylamino)methyl]benzene-sulfonyl}acetamide], the concentration for half-maximal inhibition (IC50) (average IC50, class symbols) lay in the range of 1000 to 5000 nM.

For the molecule `CC(C)c1cc(C#CC2CCCCC2)cc(C(C)C)c1CC(=O)NS(=O)(=O)c1ccc(CN(C)C)cc1` [Compound 324, 2-[4-(2-cyclohexylethynyl)-2,6-bis(propan-2-yl)phenyl]-N-{4-[(dimethylamino)methyl]benzene-sulfonyl}acetamide], the half-maximal inhibitory concentration (IC50) (average IC50, class symbols) lay in the range of 40 to 200 nM.

Take `CC(C)c1cc(CCC2CCCC2)cc(C(C)C)c1CC(=O)NS(=O)(=O)c1ccc(CN(C)C)cc1` [Compound 325, 2-[4-(2-cyclopentylethyl)-2,6-bis(propan-2-yl)phenyl]-N-{4-[(dimethylamino)methyl]benzene-sulfonyl}acetamide]: the IC50 (average IC50, class symbols) lay in the range of 1000 to 5000 nM.

Consider `CC(C)c1cc(C2CCCC2)cc(C(C)C)c1CC(=O)NS(=O)(=O)c1ccc(CN(C)C)cc1` [Compound 355, 2-[4-cyclopentyl-2,6-bis(propan-2-yl)phenyl]-N-{4-[(dimethylamino)methyl]benzene-sulfonyl}acetamide], for which the IC50 (average IC50, class symbols) fell in the range of 5000 to 30000 nM. With `CC(C)c1cc(C#CC2CCCC2)cc(C(C)C)c1CC(=O)NS(=O)(=O)c1ccc(CN(C)C)cc1` [Compound 370, 2-[4-(2-cyclopentylethynyl)-2,6-bis(propan-2-yl)phenyl]-N-{4-[(dimethylamino)methyl]benzene-sulfonyl}acetamide], where the note is “average IC50, class symbols”, the 50% inhibitory concentration (IC50) lay in the range of 40 to 200 nM. Regarding `CC(C)c1cc(C(O)c2ccccc2)cc(C(C)C)c1CC(=O)NS(=O)(=O)c1ccc(CN(C)C)cc1` (stereo not shown) [Compound 372, N-{4-[(dimethylamino)methyl]benzenesulfonyl}-2-(4-[hydroxy(phenyl)methyl]-2,6-bis(propan-2-yl)phenyl)acetamide], the IC50 under setting [1] is greater than 30000 nM. Same read-out and setting: then `CC(C)c1cc(C(=O)c2ccccc2)cc(C(C)C)c1CC(=O)NS(=O)(=O)c1ccc(CN(C)C)cc1` [Compound 373, 2-[4-benzoyl-2,6-bis(propan-2-yl)phenyl]-N-{4-[(dimethylamino)methyl]benzenesulfonyl}acetamide], with greater than 30000 nM.

Turning to `CC(C)c1cc(CC2=CCCCC2)cc(C(C)C)c1CC(=O)NS(=O)(=O)c1ccc(CN(C)C)cc1` [Compound 377, 2-[4-(cyclohex-1-en-1-ylmethyl)-2,6-bis(propan-2-yl)phenyl]-N-{4-[(dimethylamino)methyl]benzenesulfonyl}acetamide], for the setting “average IC50, class symbols”, the IC50 was 1000 to 5000 nM. As for `CC(C)c1cc(CC2CCCCC2)cc(C(C)C)c1CC(=O)NS(=O)(=O)c1ccc(CN(C)C)cc1` [Compound 378, 2-[4-(cyclohexylmethyl)-2,6-bis(propan-2-yl)phenyl]-N-{4-[(dimethylamino)methyl]benzenesulfonyl}acetamide], where the note is “average IC50, class symbols”, the IC50 lay within 5000 to 30000 nM. On to `C#Cc1cc(C(C)C)c(CC(=O)NS(=O)(=O)c2ccc(C(C)N(C)C)cc2)c(C(C)C)c1` (stereo not shown) [Compound 379], for which, for the setting “average IC50, class symbols”, the IC50 was in the range of 1000 to 5000 nM.

The term IC50 denotes the concentration that gives 50% inhibition.
